From patent US20260286297A1, “METHOD FOR PRODUCING GROUP 2 INNATE LYMPHOID CELLS” (KYOTO UNIVERSITY, priority 2023, published 2026)

Legend:
[1] = system: hematopoietic precursor cells (derived from iPS cell line 1231A2); test: Differentiation induction from iPS cell-derived HPCs to ILC2s, flow cytometry (Experiments 2 and 4); assay type: cell-based, human; details: line 1231A2 HPCs; for induction of ILC2-like cell populations (lineage marker-negative, GATA3-expressing, capacity to produce IL-13): CDK8 inhibitor in medium B Day 6-12 (Senexin A 3 μM; CCT-251921 100 nM), flow cytometry after 12 days; for differentiation induction into ILC2-like cells containing IL-10-producing cells: Condition 2 plus CDK8 inhibitor in medium B Day 6-12 (Compounds 1-3 1 μM, Compound 4 10 μM)
Description: The HPCs prepared from the iPS cells in Experiment 1 were cultured to be differentiation-induced into ILC2s. Specifically, 2500 to 20000 HPC stock cells prepared from the line 1231A2 were seeded in a 96-well plate (Corning, 3799 or Iwaki, 3860-096) coated with 2.5 μg/mL Fc-DLL4 and 2.5 μg/mL RetroNectin™ (Day 0) and cultured at 37° C. in a 5% CO2 atmosphere under the medium conditions shown below for 12 days to be differentiation-induced. In the differentiation induction culture for 12 days, 100 μL of medium was added on Day 3, followed by medium replacement on Day 6 and Day 9. If the cells in each culture well are confluent after the medium replacement on Day 6 and Day 9, the cells in the well were suspended, 2-fold diluted, and reseeded in a new 96-well plate. In the cases of Conditions 2 to 4, IL-2 (BioLegend, 589108 or PeproTech, 200-02) was added to medium A at 200 U/mL. In the case of Condition 3, Senexin A (Selleck, S8520) was added to medium B at 3 μM as CDK8 inhibitor. In the case of Condition 4, CCT-251921 (MedChemExpress, HY-19984) was added to medium B at 100 nM as CDK8 inhibitor. The differentiated cells cultured as described above were stimulated at 37° C. in a 5% CO2 atmosphere for 4 to 6 hours using the following: • IL-1β (PeproTech, 200-01B), final concentration: 10 ng/ml. • IL-2, final concentration: 20 ng/ml. • IL-7, final concentration: 50 ng/ml. • IL-23 (BioLegend, 574106), final concentration: 20 ng/ml • IL-25 (IL-17E) (PeproTech, 200-24), final concentration: 20 ng/ml • eBioscience™ Cell Stimulation Cocktail (plus Protein transport inhibitor) (Thermo Fisher Scientific, 00-4975-03) The stimulated cells were subsequently stained and analyzed with an LSRFortessa™ Cell Analyzer (BD Biosciences) by flow cytometry. […] The present experiment confirmed the differentiation induction into ILC2s using multiple CDK8 inhibitors having different structures.

[2] = system: HPCs derived from the line Ff-101s04; test: Differentiation induction from iPS cell-derived HPCs to ILC2s, different iPS cell line (Experiment 3); assay type: cell-based, human; details: HPCs from iPS line Ff-101s04; Condition 3 (3 μM Senexin A), Condition 4 (100 nM CCT-251921)
[3] = system: iPS cell-derived HPCs differentiation culture; test: Concentrations of cytokines in differentiation culture supernatant containing iPS cell-derived ILC2s (Experiment 6); assay type: cell-based, human; details: Day 12 culture supernatant; Condition 3 versus Conditions 1 and 2
Text: The culture supernatant of Day 12 of the culture was collected that was differentiation-induced under “Condition 1”, “Condition 2”, and “Condition 3” described in Experiment 2, followed by the quantification of concentrations of IL-10, IL-5, and amphiregulin in the culture supernatant with the following kits, respectively. Amphiregulin is a cytokine that plays a central role in the capacity of ILC2s to repair tissue. It is conceivable that ILC2s having the capacity to repair tissue were obtained in the case where amphiregulin increased in concentration. • IL-10: Human IL-10 immunoassay kit (PerkinElmer, AL218C) • IL-5: Human IL-5 immunoassay kit (PerkinElmer, AL267C) • Amphiregulin: Human Amphiregulin Quantikine ELISA Kit (R&D Systems, DAR00)
IL-10 and IL-5 were measured with an Envision (Revvity). Amphiregulin was measured with a Powerscan4 (DS pharma biomedical Co., LTD.).

[4] = system: human cord blood-derived CD34-positive cells; test: Differentiation induction from human cord blood-derived CD34-positive HPCs to ILC2s (Experiment 5); assay type: cell-based; details: Condition 3 (3 μM Senexin A), flow cytometry on Day 19
Text: In order to ascertain the versatility of the method for differentiation induction in Experiment 2, the present experiment confirmed the differentiation induction from HPCs derived from the human body to ILC2s. Specifically, ILC2s were differentiation-induced by culturing purchased human cord blood-derived CD34-positive cells (Lonza, 2C-101) with the methods of Condition 1, Condition 2, and Condition 3 in Experiment 2. In the present experiment, the medium was also replaced with the same medium as on Days 6 to 12 on Day 12 and Day 15 of the culture, and the cells in each culture well were 2-fold diluted and reseeded in the case where the cells in the culture well were confluent.

SMILES	induction of ILC2-like cell populations (lineage marker-negative, GATA3-expressing, capacity to produce IL-13) [1]	differentiation induction into ILC2-like cells containing IL-10-producing cells [1]	differentiation induction of ILC2-like cells containing IL-10-producing cells [2]	production of IL-5 in the culture supernatant [3]	production of IL-10 in the culture supernatant [3]	production of amphiregulin in the culture supernatant [3]	differentiation induction of ILC2-like cells containing IL-10-producing cells [4]	capacity of the induced ILC2-like cells to produce IL-10 ([1]; Condition 3, 3 μM Senexin A in medium B Day 6-12)
Cn1ncc2cc(-c3cnc(N)c(Cl)c3N3CCC4(CCNC4=O)CC3)ccc21 [CCT-251921]	ILC2-like cell populations were induced	observed	ILC2-like cells containing IL-10-producing cells were differentiation-induced	–	–	–	–	–
N#Cc1ccc2ncnc(NCCc3ccccc3)c2c1 [Senexin A]	ILC2-like cell populations were induced	observed	ILC2-like cells containing IL-10-producing cells were differentiation-induced	enhancement of production	enhancement of production	enhancement of production	ILC2-like cells containing IL-10-producing cells were differentiation-induced	had the capacity to produce IL-10
